This passage reports Kd results from publication doi:10.1101/2025.08.01.668199, “Vacuolar Phosphatidylinositol 3,4,5-trisphosphate controls fusion through binding Vam7, and membrane microdomain assembly” (bioRxiv, 2025).

In one assay the target is T1, Vam7 (Saccharomyces cerevisiae, UniProt P32912).
T1 construct: GST-Vam7
T1 sequence (P32912 1-316): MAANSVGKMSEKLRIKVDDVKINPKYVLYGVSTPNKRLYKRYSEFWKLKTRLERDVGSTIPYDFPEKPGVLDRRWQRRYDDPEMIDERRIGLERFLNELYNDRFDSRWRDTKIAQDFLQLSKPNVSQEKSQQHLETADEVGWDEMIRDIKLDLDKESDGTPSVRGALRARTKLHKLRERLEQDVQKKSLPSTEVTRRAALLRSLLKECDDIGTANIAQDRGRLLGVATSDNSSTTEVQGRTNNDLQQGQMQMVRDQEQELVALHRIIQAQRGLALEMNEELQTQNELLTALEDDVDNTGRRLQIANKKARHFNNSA
Kind of assay: bio-layer interferometry, biotinylated lipid on streptavidin probe. The assay is classed as binding.

Another assay addresses T2, Vam7^Y42A (Saccharomyces cerevisiae, UniProt P32912, Y42A).
T2 construct: GST-Vam7^Y42A
Described as above. The assay is classed as binding.

T2 sequence (P32912 whole entry Y42A): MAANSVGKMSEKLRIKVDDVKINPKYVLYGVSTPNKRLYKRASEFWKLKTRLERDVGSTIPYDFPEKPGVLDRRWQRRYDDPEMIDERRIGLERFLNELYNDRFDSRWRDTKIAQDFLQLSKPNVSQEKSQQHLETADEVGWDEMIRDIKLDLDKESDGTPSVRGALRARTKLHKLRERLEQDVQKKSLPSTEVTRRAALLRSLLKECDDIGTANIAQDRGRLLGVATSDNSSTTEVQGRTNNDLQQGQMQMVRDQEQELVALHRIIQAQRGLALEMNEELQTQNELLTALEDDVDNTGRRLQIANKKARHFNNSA

At Vam7, PI3P had a Kd of about 200 nM.
On to PI(3,4,5)P3, for which the equilibrium dissociation constant (Kd) was about 210 nM at Vam7^Y42A and about 70 nM on Vam7.
